Data set [1] can be described thus: stability under ethylene oxide sterilization, heating, and aging with paclitaxel. To be noted: reacted with paclitaxel.
Data set [2] is described as follows: BPH Preclinical Study 4: tissue and plasma PK, histology.

Structures are written as SMILES.

With `O=C(O)c1ccccc1` [benzoic acid], in data set [1], the “stability under ethylene oxide sterilization, heating, and aging process” value is on record as “not stable”.
`CC(=O)O[C@H]1C(=O)[C@@]2(C)[C@H]([C@H](OC(=O)c3ccccc3)[C@]3(O)C[C@H](OC(=O)[C@H](O)[C@@H](NC(=O)c4ccccc4)c4ccccc4)C(C)=C1C3(C)C)[C@]1(OC(C)=O)CO[C@@H]1C[C@@H]2O` [paclitaxel]: the “prostate tissue drug concentration, maximum dose arm vs standard dose” value in data set [2] (28 days) turned out to be 4.5 times higher; in data set [2] (70 days), 23 times higher. For the same molecule, the “prostatic urethra tissue drug concentration, maximum dose arm vs standard dose” value in data set [2] (28 days) is 11 times higher; in data set [2] (70 days) it was 23 times higher. Further, the clinical abnormalities result in data set [2] (all animals, duration of the study) is recorded as “No significant clinical abnormalities”. In data set [2] (did not change between 7 days and 70 days), the “increase of urethral luminal diameter as a result of commissurotomy” value is recorded as “approximately 50%”. Further, the “histology of the prostate” value in data set [2] (maximum dose animals, 28 days, slower healing relative to standard dose and control) was “ongoing healing”. In data set [2] (maximum dose treatment arm, 19.6 mg of paclitaxel), the abnormalities or complications entry is recorded as “no abnormalities or complications”. The plasma paclitaxel concentration entry in data set [2] (maximum dose, 12 hour and later) is “BLOQ”; in data set [2] (standard dose, all time-points (1, 3, 7, 12 hours, 1, 3, 7, 14, 28 days)), “BLOQ”. Besides, the “nonurethral close proximity tissue sample concentrations” value in data set [2] (most samples, 28 days and beyond) is recorded as “at or below the limit of quantification”.
